{"source": "patent US20140030341A1", "about": "“POLYMERS AND METHODS FOR THE TREATMENT OF PAIN” (RUTGERS, THE STATE UNIVERSITY OF NEW JERSEY, priority 2011, published 2014)", "key": {"[1]": {"conditions": "37° C., pH 7.4 buffer, HPLC", "experimental": "The system was connected to a Dell computer running Empire software. Samples were filtered using 0.22 μm poly(vinylidine fluoride) syringe filters (Fisher). […] Mobile phase used was composed of 50 mM KH2PO4, 2.5 mM sodium dodecyl sulfate, 25% acetonitrile, 75% water at pH 3.\nIn vitro degradation studies. Diacid 3 (5.0 mg, triplicate) was placed into scintillation vials and 20.00 mL phosphate buffered saline (PBS) pH 7.4 added. Samples were incubated at 37° C. under constant shaking (60 rpm) in an Excella E25 Incubator Shaker (New Brunswick Scientific). PBS (1.00 mL) was removed at predetermined time points (2 h, 5 h, 10 h, and daily starting on day 1) and replaced with fresh PBS (1.00 mL). The pH was checked using an Accumet® Research AR15 pH meter (Fisher Scientific) and adjusted using 0.50 M NaOH when needed. Samples were immediately analyzed by HPLC using the conditions outlined above.\nSamples were incubated at 37° C. under constant shaking (60 rpm) in an Excella E25 Incubator Shaker (New Brunswick Scientific). PBS (20.00 mL) was removed daily and replaced with fresh PBS. Samples were analyzed by HPLC."}, "[2]": {"test_system": "3T3 fibroblasts cells (NIH 3T3 fibroblast cell line)", "experimental": "Cytocompatibility was evaluated by culturing 3T3 fibroblasts cells (NIH 3T3 fibroblast cell line) in diacid- and/or polymer-containing medium at concentrations of 0.10 and 0.01 mg/mL Cell culture medium consisted of Dulbecco's modified Eagle's medium (DMEM), 10 vol. % fetal bovine serum (Atlanta Biologicals, Lawrenceville, Ga.), 1% 1-glutamate, and 1% penicillin/streptomycin. Fibroblasts were seeded at a density of 2,000 cells/well in 96 well plates containing 150 μL of culture medium. The positive control consisted of fibroblasts with cell culture media only and the negative control consisted of fibroblasts with cell culture media and 5% 200-proof ethanol (PHARMCO-AAPER). […] Cell viability was determined by using Calcein AM and ethidium homodimer-1 staining (Molecular Probes) according to the manufacturer's protocol and the results normalized to the positive control. […] Experiments were performed in quadruplicates."}}, "data": [{"smiles": "CN1CC[C@]23c4c5ccc(OC(=O)CCCC(=O)O)c4O[C@H]2[C@@H](OC(=O)CCCC(=O)O)C=C[C@H]3[C@H]1C5", "note": "[Diacid 3]", "values": [{"measurement": "hydrolytic degradation pathway", "setting": "[1]", "value": "hydrolyzes into a monoacid"}, {"measurement": "cell viability vs positive control (FIG. 7A)", "setting": "[2]; 0.10 mg/mL, 95% confidence level", "value": "no statistical differences"}, {"measurement": "cytotoxicity towards fibroblasts", "setting": "[2]; 0.10 and 0.01 mg/mL", "value": "non-cytotoxic"}, {"measurement": "cell viability vs positive control (statistical analysis)", "setting": "[2]; 0.10 and 0.01 mg/mL, 24, 48 and 72 h, 95% confidence level", "value": "no significant differences"}]}]}
